Measured values taken from US10457681B2, “Toll-like receptor 7 (TLR7) agonists having a tricyclic moiety, conjugates thereof, and methods and uses therefor” (BRISTOL-MYERS SQUIBB COMPANY, priority 2017, dated 2019).
pEC50: −log10 of the molar value.

Columns and labels:
human TLR7 = human TLR7 (Homo sapiens (Human), UniProt Q9NYK1); assay: HEK-Blue TLR7 reporter assay (TLR7 agonist activity); format: cell-based; conditions: HEK-Blue TLR7 cells, SEAP reporter, 18 h treatment; read-out: TLR7 Agonism (EC50)
Chain of human TLR7 (Q9NYK1 27-1049): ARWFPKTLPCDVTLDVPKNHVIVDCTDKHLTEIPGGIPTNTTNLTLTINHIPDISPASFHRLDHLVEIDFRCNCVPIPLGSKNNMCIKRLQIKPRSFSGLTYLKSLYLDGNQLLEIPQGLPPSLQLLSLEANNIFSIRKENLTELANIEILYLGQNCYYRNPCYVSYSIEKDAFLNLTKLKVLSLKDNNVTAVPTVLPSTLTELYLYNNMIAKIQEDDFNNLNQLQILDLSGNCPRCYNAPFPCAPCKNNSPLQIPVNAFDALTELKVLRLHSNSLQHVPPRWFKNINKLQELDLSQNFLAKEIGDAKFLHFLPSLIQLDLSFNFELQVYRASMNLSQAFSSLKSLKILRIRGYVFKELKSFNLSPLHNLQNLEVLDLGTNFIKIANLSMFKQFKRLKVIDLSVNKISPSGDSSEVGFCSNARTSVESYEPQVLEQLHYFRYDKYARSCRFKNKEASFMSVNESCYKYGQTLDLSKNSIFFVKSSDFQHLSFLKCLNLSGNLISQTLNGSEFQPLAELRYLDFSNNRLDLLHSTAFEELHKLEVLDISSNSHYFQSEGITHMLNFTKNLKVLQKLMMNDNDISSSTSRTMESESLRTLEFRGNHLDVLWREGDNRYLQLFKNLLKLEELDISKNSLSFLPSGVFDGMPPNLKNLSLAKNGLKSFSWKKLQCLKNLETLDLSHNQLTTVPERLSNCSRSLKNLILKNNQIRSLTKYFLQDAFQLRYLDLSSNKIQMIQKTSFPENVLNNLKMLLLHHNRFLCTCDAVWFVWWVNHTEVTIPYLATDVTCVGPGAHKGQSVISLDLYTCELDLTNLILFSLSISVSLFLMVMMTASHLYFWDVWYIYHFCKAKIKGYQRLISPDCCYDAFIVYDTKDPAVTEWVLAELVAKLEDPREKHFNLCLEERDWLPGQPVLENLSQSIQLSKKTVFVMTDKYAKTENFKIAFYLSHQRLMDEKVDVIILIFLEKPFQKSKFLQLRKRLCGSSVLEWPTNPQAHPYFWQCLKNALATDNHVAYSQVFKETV
Description: This example describes a method for assaying TLR7 agonist activity of the compounds disclosed in this specification.
HEK-Blue™ TLR7 cells were added to each well of a 384-well tissue-culture plate (15,000 cells per well) and incubated 16-18 h at 37° C., 5% CO2. Compounds (100 nl) were dispensed into wells containing the HEK-Blue™ TLR cells and the treated cells were incubated at 37° C., 5% CO2. After 18 h treatment ten microliters of freshly-prepared Quanti-Blue™ reagent (Invivogen) was added to each well, incubated for 30 min (37° C., 5% CO2) and SEAP levels measured using an Envision plate reader (OD=620 nm).

interleukin 6 (IL-6) = assay: Interleukin 6 induction assay in human whole blood; format: cell-based; conditions: 37° C., 20 h, AlphaLISA
Description: This example describes a method for assaying interleukin 6 induction by compounds disclosed in this specification.
Compounds diluted in DMSO were transferred to individual wells of a Matrix Technologies clear, V-bottom 384-well plate using ECHO acoustic liquid handling technology (25 nL per well). Human whole-blood samples (25 uL) were added to each well using a CyBio FeliX liquid handling instrument. The plate was shaken on a plate shaker for three min before incu-bating the reaction mixtures at 37° C. for 20 h. Basel RPMI 1640 medium (supplemented with L-glutamine) was then added to each well (25 uL per well) prior to liberating plasma from each sample by centrifugation (450×g, 5 min, ambient temperature). Treated plasma samples (3 uL) were subsequently transferred to individual wells of a white, shallow, 384-well ProxiPlate (Perkin Elmer) using the FeliX liquid handling instrument and their interleukin 6 levels were measured using AlphaLISA technology as described by the manufacturer, PerkinElmer. Data analyses software was used to determine compound EC50 values where the baseline was established using average DMSO values and 100% induction established using reference compound values at the highest concentration tested. EC50's can be determined with software such as Graphpad Prism™.

IFN-α = conditions: fold lower potency vs corresponding purine-8-one compound; cited from earlier work

| Compound | pEC50 (human TLR7) | pEC50 (interleukin 6 (IL-6)) | potency less than that of the corresponding purine-8-one compound, as measured by IFN-α induction (IFN-α) [×] |
| --- | --- | --- | --- |
| CCCCOc1nc(N)c2nc(O)n(Cc3ccccc3)c2n1 [Compound B, reference compound] | 6.32 | – | – |
| CCCCOc1nc(N)c2nc(O)n(Cc3ccc4c(c3)Sc3cc(CNC5COC5)ccc3N4C)c2n1 [Ia-05] | 6.24 | – | – |
| CCCCOc1nc(N)c2nc(O)n(Cc3ccc4c(c3)Sc3cc(CNC5CCC5)ccc3N4C)c2n1 [Ia-06] | 7.03 | 6.12 | – |
| CCCCOc1nc(N)c2c(n1)N(Cc1cccc(CN3CCCC3)c1)CC(=O)N2 [Vesatolimod, vesatolimod, reference compound] | 5.92 | – | 100 |

These reach a higher pEC50 (human TLR7). Values come first.

| pEC50 (human TLR7) | pEC50 (interleukin 6 (IL-6)) | Compound | potency less than that of the corresponding purine-8-one compound, as measured by IFN-α induction (IFN-α) [×] |
| --- | --- | --- | --- |
| 7.30 | 6.60 | CCCCOc1nc(N)c2nc(O)n(Cc3ccc4c(c3)Sc3cc(CO)ccc3N4C)c2n1 [Ia-01] | – |
| 7.41 | 7.32 | CCCCOc1nc(N)c2nc(O)n(Cc3ccc4c(c3)Sc3cc(CNC)ccc3N4C)c2n1 [Ia-04] | – |
| 8.07 | 7.84 | CCCCOc1nc(N)c2nc(O)n(Cc3ccc4c(c3)Sc3cc(CNCc5ccccc5)ccc3N4C)c2n1 [Ia-03] | – |
| 8.10 | – | CCCCOc1nc(N)c2nc(O)n(Cc3ccc4c(c3)Sc3cc(CNCc5ccncc5)ccc3N4C)c2n1 [Ia-07] | – |
| 8.33 | 8.31 | CCCCOc1nc(N)c2nc(O)n(Cc3ccc4c(c3)Sc3cc(CNC(C)C)ccc3N4C)c2n1 [Ia-02] | – |
